Structures are written as SMILES. Active and inactive are the calls of the source.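 The calls were made as follows: active = hERG flux cut by over 30% at some tested dose, with a fitted dose response curve; inactive = no hERG inhibition at any dose or no curve.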

In this experiment the target is Voltage-gated inwardly rectifying potassium channel KCNH2 (Homo sapiens) (UniProt Q12809). The experiment can be described thus: hERG channel inhibition in selectivity testing, SAR follow-up, selectivity assay for TASK1 inhibitor project, FluxOR thallium flux, concentration-response, CHO cells (AID 652194). The conditions noted are these: hERG-expressing cells, FluxOR thallium flux fluorescence; at 30 µM (top of the series).
Voltage-gated inwardly rectifying potassium channel KCNH2 (Homo sapiens), sequence (Q12809 whole entry, looked up): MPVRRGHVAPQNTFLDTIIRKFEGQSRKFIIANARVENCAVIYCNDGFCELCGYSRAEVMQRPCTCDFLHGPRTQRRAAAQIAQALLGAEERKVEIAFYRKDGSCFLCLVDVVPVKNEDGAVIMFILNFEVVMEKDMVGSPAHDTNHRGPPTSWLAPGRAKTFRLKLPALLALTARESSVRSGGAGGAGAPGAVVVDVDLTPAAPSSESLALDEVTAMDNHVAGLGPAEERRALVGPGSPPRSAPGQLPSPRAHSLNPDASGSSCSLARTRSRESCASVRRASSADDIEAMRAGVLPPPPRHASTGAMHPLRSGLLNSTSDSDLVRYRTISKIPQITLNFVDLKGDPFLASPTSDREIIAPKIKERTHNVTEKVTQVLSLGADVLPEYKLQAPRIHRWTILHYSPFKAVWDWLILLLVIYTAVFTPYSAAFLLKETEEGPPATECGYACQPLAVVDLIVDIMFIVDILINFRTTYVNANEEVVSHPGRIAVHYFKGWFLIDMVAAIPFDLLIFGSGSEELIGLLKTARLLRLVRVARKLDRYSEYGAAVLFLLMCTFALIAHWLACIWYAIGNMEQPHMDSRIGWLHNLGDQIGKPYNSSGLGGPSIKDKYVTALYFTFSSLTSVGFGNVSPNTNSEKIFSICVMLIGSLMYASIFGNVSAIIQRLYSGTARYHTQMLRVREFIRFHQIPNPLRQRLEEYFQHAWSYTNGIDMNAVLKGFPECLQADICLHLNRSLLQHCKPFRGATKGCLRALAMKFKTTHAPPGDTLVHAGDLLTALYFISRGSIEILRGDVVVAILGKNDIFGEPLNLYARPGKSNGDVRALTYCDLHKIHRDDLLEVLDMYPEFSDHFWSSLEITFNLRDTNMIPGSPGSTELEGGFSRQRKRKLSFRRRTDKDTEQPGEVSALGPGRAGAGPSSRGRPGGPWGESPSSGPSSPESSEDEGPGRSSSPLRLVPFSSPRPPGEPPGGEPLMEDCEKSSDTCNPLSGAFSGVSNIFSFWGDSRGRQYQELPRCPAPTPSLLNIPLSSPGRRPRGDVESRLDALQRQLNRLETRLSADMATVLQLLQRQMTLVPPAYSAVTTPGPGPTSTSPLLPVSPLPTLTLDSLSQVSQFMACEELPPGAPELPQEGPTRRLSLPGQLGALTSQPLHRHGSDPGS

In the case of `O=C(Nc1cccc(NC(=O)c2ccc(F)cc2)c1)c1ccccc1`, the “flux ratio, lower = inhibition” value was “inactive”. As to `COc1ccccc1C(=O)Nc1cc(NC(=O)c2ccccc2C(C)C)ccc1F`, the “flux ratio, lower = inhibition” value is “inactive”. To `CCOc1ccccc1NC(=O)c1cccc(NC(=O)c2ccccc2C(F)(F)F)c1` belongs “inactive”; to `COc1ccc(F)cc1C(=O)Nc1cccc(NC(=O)c2cccc(C)c2)c1`, “inactive”; to `CCOc1ccccc1NC(=O)c1cccc(NC(=O)CC2CCCCC2)c1`, “inactive”. Regarding `COc1ccccc1NC(=O)c1cccc(NC(=O)c2ccccc2)c1`, the “flux ratio, lower = inhibition” value was “inactive”. For the molecule `Cc1cccc(C(=O)Nc2cccc(NC(=O)c3ccc(Cl)cc3)c2)c1`, the “flux ratio, lower = inhibition” value is “inactive”. On to `O=C(Nc1cccc(NC(=O)c2ccsc2)c1)c1ccccc1`, for which the “flux ratio, lower = inhibition” value was “inactive”.

Consider `O=C(Nc1cccc(NC(=O)c2ccc(C(F)(F)F)cc2)c1)c1ccccc1`, for which the “flux ratio, lower = inhibition” value is “inactive”. To `O=C(Nc1cccc(NC(=O)c2ccco2)c1)c1ccccc1` belongs “inactive”; to `Cc1cccc(C(=O)Nc2cccc(NC(=O)c3ccncc3)c2)c1`, “inactive”; to `Cc1cccc(C(=O)Nc2cccc(NC(=O)c3cccc(F)c3)c2)c1`, “inactive”.
